Test results from patent publication US8889676B2, “3-ureidoisoquinolin-8-yl derivatives” (Actelion Pharmaceuticals Ltd., priority 2011, dated 2014).
≈ marks a conversion by molar mass, not a printed value.

Tested on: S. pneumoniae ATCC 49619
Test: Minimal inhibitory concentration (MIC) by broth microdilution (CLSI M7-A7)
Format: cell-based, Streptococcus pneumoniae
Settings: Streptococcus pneumoniae, ATCC49619; cation-adjusted Mueller Hinton Broth supplemented with 3% (v/v) lysed horse blood; microdilution method
Procedure: Minimal inhibitory concentrations (MICs; mg/l) were determined in cation-adjusted MuellerHinton Broth (supplemented with 3% (v/v) lysed horse blood for testing Streptococcus pneumoniae) by a microdilution method following the description given in “Methods for Dilution Antimicrobial Susceptibility Tests for Bacteria that Grow Aerobically”, Approved standard, 7th ed., a Clinical and Laboratory Standards Institute (CLSI) Document M7-A7, Wayne, Pa., USA, 2006.

In order of falling MIC:
1. CCNC(=O)Nc1cc2c(-c3ccncc3)ccc(CNC(=O)CCC(=O)NC)c2cn1 [Example 55, N-[3-(3-ethyl-ureido)-5-pyridin-4-yl-isoquinolin-8-ylmethyl]-N′-methyl-succinamide]  8 µg/mL (≈ 18.4 µM)
2. CCNC(=O)Nc1cc2c(-c3ccnc(O)c3)ccc(CNC(=O)OC)c2cn1 [Example 168, [3-(3-ethyl-ureido)-5-(2-hydroxy-pyridin-4-yl)-isoquinolin-8-ylmethyl]-carbamic acid methyl ester]  8 µg/mL (≈ 20.2 µM)
3. CCNC(=O)Nc1cc2cccc(CNC(=O)CCC(N)=O)c2cn1 [Example 21, N-[3-(3-ethyl-ureido)-isoquinolin-8-ylmethyl]-succinamide]  8 µg/mL (≈ 23.3 µM)
4. CCNC(=O)Nc1cc2c(-c3ccncc3)ccc(CNC(=O)OCCN3CCCC3)c2cn1 [Example 80, [3-(3-ethyl-ureido)-5-pyridin-4-yl-isoquinolin-8-ylmethyl]-carbamic acid 2-pyrrolidin-1-yl-ethyl ester]  8 µg/mL (≈ 17.3 µM)
5. CCNC(=O)Nc1cc2c(-c3ccnc(CCC(=O)N(C)C)c3)ccc(CNC(=O)OC)c2cn1 [Example 196, [5-[2-(2-dimethylcarbamoyl-ethyl)-pyridin-4-yl]-3-(3-ethyl-ureido)-isoquinolin-8-ylmethyl]-carbamic acid methyl ester]  4 µg/mL (≈ 8.36 µM)
6. CCNC(=O)Nc1cc2cccc(CNC(=O)OCc3ccccn3)c2cn1.Cl [Example 34, [3-(3-ethyl-ureido)-isoquinolin-8-ylmethyl]-carbamic acid pyridin-2-ylmethyl ester hydrochloride]  4 µg/mL
7. CCNC(=O)Nc1cc2cccc(CNC(=O)C(C)(C)C)c2cn1 [Example 14, N-[3-(3-ethyl-ureido)-isoquinolin-8-ylmethyl]-2,2-dimethyl-propionamide]  4 µg/mL (≈ 12.2 µM)
8. CCNC(=O)Nc1cc2cccc(CNC(=O)OCC)c2cn1.Cl [Example 24, [3-(3-ethyl-ureido)-isoquinolin-8-ylmethyl]-carbamic acid ethyl ester hydrochloride]  4 µg/mL
9. CCNC(=O)Nc1cc2cccc(CNC(=O)c3ncc[nH]3)c2cn1 [Example 16, 1H-imidazole-2-carboxylic acid [3-(3-ethyl-ureido)-isoquinolin-8-ylmethyl]-amide]  4 µg/mL (≈ 11.8 µM)
10. CCNC(=O)Nc1cc2c(-c3ccnc(C(F)(F)F)c3)ccc(CNC(=O)OC)c2cn1 [Example 165, [3-(3-ethyl-ureido)-5-(2-trifluoromethyl-pyridin-4-yl)-isoquinolin-8-ylmethyl]-carbamic acid methyl ester]  4 µg/mL (≈ 8.94 µM)
11. CCNC(=O)Nc1cc2c(-c3ccnc(OC(C)C)c3)ccc(CNC(=O)OC)c2cn1 [Example 173, [3-(3-ethyl-ureido)-5-(2-isopropoxy-pyridin-4-yl)-isoquinolin-8-ylmethyl]-carbamic acid methyl ester]  4 µg/mL (≈ 9.14 µM)
12. CCNC(=O)NCc1cccc2cc(NC(=O)NCC)ncc12 [Example 43, 1-ethyl-3-{8-[(3-ethyl-ureido)-methyl]isoquinolin-3-yl}-urea]  4 µg/mL (≈ 12.7 µM)
13. CCNC(=O)Nc1cc2c(F)ccc(CNC(=O)OCCCN3CCOCC3)c2cn1 [Example 149, [3-(3-ethyl-ureido)-5-fluoro-isoquinolin-8-ylmethyl]-carbamic acid 3-morpholin-4-yl-propyl ester]  4 µg/mL (≈ 9.23 µM)
14. CCNC(=O)Nc1cc2c(-c3ccncc3)ccc(CNC(=O)OCC(O)CO)c2cn1.Cl (racemic) [Example 103, (±)-[3-(3-ethyl-ureido)-5-pyridin-4-yl-isoquinolin-8-ylmethyl]-carbamic acid 2,3-dihydroxy-propyl ester hydrochloride]  4 µg/mL
15. CCNC(=O)Nc1cc2c(-c3ccncc3)ccc(CNC(=O)CCO)c2cn1 [Example 68, N-[3-(3-ethyl-ureido)-5-pyridin-4-yl-isoquinolin-8-ylmethyl]-3-hydroxy-propionamide]  4 µg/mL (≈ 10.2 µM)
16. CCNC(=O)Nc1cc2c(-c3ccnc(N4CCCCC4)c3)ccc(CNC(=O)OC)c2cn1 [Example 174, [3-(3-ethyl-ureido)-5-(3,4,5,6-tetrahydro-2H-[1,2′]bipyridinyl-4′-yl)-isoquinolin-8-ylmethyl]-carbamic acid methyl ester]  4 µg/mL (≈ 8.65 µM)
17. CCNC(=O)Nc1cc2c(Cl)ccc(CNC(=O)OCCCN3CCOCC3)c2cn1 [Example 148, [5-chloro-3-(3-ethyl-ureido)-isoquinolin-8-ylmethyl]-carbamic acid 3-morpholin-4-yl-propyl ester]  4 µg/mL (≈ 8.89 µM)
18. CCNC(=O)Nc1cc2c(-c3ccncc3)ccc(CNC(=O)OCCCN3CCOCC3)c2cn1 [Example 110, [3-(3-ethyl-ureido)-5-pyridin-4-yl-isoquinolin-8-ylmethyl]-carbamic acid 3-morpholin-4-yl-propyl ester]  2 µg/mL (≈ 4.06 µM)
19. CCNC(=O)Nc1cc2c(-c3ccnc(OCC)c3)ccc(CNC(=O)OC)c2cn1 [Example 166, [5-(2-ethoxy-pyridin-4-yl)-3-(3-ethyl-ureido)-isoquinolin-8-ylmethyl]-carbamic acid methyl ester]  2 µg/mL (≈ 4.72 µM)
20. CCNC(=O)Nc1cc2c(-c3ccnc(N)c3)ccc(CNC(=O)OCCOC)c2cn1 [Example 115, [5-(2-amino-pyridin-4-yl)-3-(3-ethyl-ureido)-isoquinolin-8-ylmethyl]-carbamic acid 2-methoxy-ethyl ester]  2 µg/mL (≈ 4.56 µM)
21. CCNC(=O)Nc1cc2c(-c3ccncc3)ccc(CNC(=O)CCCO)c2cn1 [Example 90, N-[3-(3-ethyl-ureido)-5-pyridin-4-yl-isoquinolin-8-ylmethyl]-4-hydroxy-butyramide]  2 µg/mL (≈ 4.91 µM)
22. C#CCOC(=O)NCc1cccc2cc(NC(=O)NCC)ncc12.Cl [Example 31, [3-(3-ethyl-ureido)-isoquinolin-8-ylmethyl]-carbamic acid prop-2-ynyl ester hydrochloride]  2 µg/mL
23. C#CC(=O)NCc1cccc2cc(NC(=O)NCC)ncc12 [Example 9, propynoic acid [3-(3-ethyl-ureido)-isoquinolin-8-ylmethyl]-amide]  2 µg/mL (≈ 6.75 µM)
24. CCNC(=O)Nc1cc2c(-c3ccncc3)ccc(CNC(=O)c3cccnc3)c2cn1 [Example 23, N-[3-(3-ethyl-ureido)-5-pyridin-4-yl-isoquinolin-8-ylmethyl]-nicotinamide]  1 µg/mL (≈ 2.34 µM)
25. CCNC(=O)Nc1cc2c(-c3cc(F)nc(F)c3)ccc(CNC(=O)OC)c2cn1 [Example 172, [5-(2,6-difluoro-pyridin-4-yl)-3-(3-ethyl-ureido)-isoquinolin-8-ylmethyl]-carbamic acid methyl ester]  1 µg/mL (≈ 2.41 µM)
26. CCNC(=O)Nc1cc2c(Cl)ccc(CNC(=O)OC(C)(C)C)c2cn1 [Example 113, [5-chloro-3-(3-ethyl-ureido)-isoquinolin-8-ylmethyl]-carbamic acid tert-butyl ester]  1 µg/mL (≈ 2.64 µM)
27. CCNC(=O)Nc1cc2c(-c3ccncc3C)ccc(CNC(=O)OCCOC)c2cn1 [Example 121, [3-(3-ethyl-ureido)-5-(3-methyl-pyridin-4-yl)-isoquinolin-8-ylmethyl]-carbamic acid 2-methoxy-ethyl ester]  1 µg/mL (≈ 2.29 µM)
28. CCNC(=O)Nc1cc2c(-c3ccnc(C#N)c3)ccc(CNC(=O)OCCOC)c2cn1 [Example 120, [5-(2-cyano-pyridin-4-yl)-3-(3-ethyl-ureido)-isoquinolin-8-ylmethyl]-carbamic acid 2-methoxy-ethyl ester]  1 µg/mL (≈ 2.23 µM)
29. CCNC(=O)Nc1cc2c(-c3ccncc3)ccc(CNC(=O)OCCO)c2cn1 [Example 107, [3-(3-ethyl-ureido)-5-pyridin-4-yl-isoquinolin-8-ylmethyl]-carbamic acid 2-hydroxy-ethyl ester]  1 µg/mL (≈ 2.44 µM)
30. CCNC(=O)Nc1cc2c(-c3cc(C)nc(C)c3)ccc(CNC(=O)OCCOC)c2cn1 [Example 116, [5-(2,6-dimethyl-pyridin-4-yl)-3-(3-ethyl-ureido)-isoquinolin-8-ylmethyl]-carbamic acid 2-methoxy-ethyl ester]  1 µg/mL (≈ 2.21 µM)
31. C#CCOC(=O)NCc1ccc(-c2cccc(O)c2)c2cc(NC(=O)NCC)ncc12.Cl [Example 133, [3-(3-ethyl-ureido)-5-(3-hydroxy-phenyl)-isoquinolin-8-ylmethyl]-carbamic acid prop-2-ynyl ester hydrochloride]  0.5 µg/mL
32. CCNC(=O)Nc1cc2c(-c3ccncc3)ccc(CNC(=O)Cn3cccn3)c2cn1 [Example 70, N-[3-(3-ethyl-ureido)-5-pyridin-4-yl-isoquinolin-8-ylmethyl]-2-pyrazol-1-yl-acetamide]  0.5 µg/mL (≈ 1.16 µM)
33. C#CCOC(=O)NCc1ccc(-c2ccnc(C)c2)c2cc(NC(=O)NCC)ncc12 [Example 158, [3-(3-ethyl-ureido)-5-(2-methyl-pyridin-4-yl)-isoquinolin-8-ylmethyl]-carbamic acid prop-2-ynyl ester]  0.5 µg/mL (≈ 1.2 µM)
34. C#CCOC(=O)NCc1ccc(Cl)c2cc(NC(=O)NCC)ncc12 [Example 112, [5-chloro-3-(3-ethyl-ureido)-isoquinolin-8-ylmethyl]-carbamic acid prop-2-ynyl ester]  0.5 µg/mL (≈ 1.39 µM)
35. CCNC(=O)Nc1cc2c(-c3ccncc3)ccc(CNC(=O)C3CC3)c2cn1 [Example 65, cyclopropanecarboxylic acid [3-(3-ethyl-ureido)-5-pyridin-4-yl-isoquinolin-8-ylmethyl]-amide]  0.25 µg/mL (≈ 0.642 µM)
36. C#CCOC(=O)NCc1ccc(-c2ccncc2)c2cc(NC(=O)NCC)ncc12 [Example 41, [3-(3-ethyl-ureido)-5-pyridin-4-yl-isoquinolin-8-ylmethyl]-carbamic acid prop-2-ynyl ester]  0.25 µg/mL (≈ 0.62 µM)
37. CCNC(=O)Nc1cc2c(-c3ccncc3)ccc(CNC(=O)OC)c2cn1 [Example 79, [3-(3-ethyl-ureido)-5-pyridin-4-yl-isoquinolin-8-ylmethyl]-carbamic acid methyl ester]  0.25 µg/mL (≈ 0.659 µM)
38. C#CCOC(=O)NCc1ccc(-c2ccc(C(N)=O)cc2)c2cc(NC(=O)NCC)ncc12.Cl [Example 141, [5-(4-carbamoyl-phenyl)-3-(3-ethyl-ureido)-isoquinolin-8-ylmethyl]-carbamic acid prop-2-ynyl ester hydrochloride]  0.25 µg/mL
